Source: ChEMBL document CHEMBL1136942, “Optimization of 5-phenyl-3-pyridinecarbonitriles as PKCtheta inhibitors” (Bioorg Med Chem Lett, 2009)
In brackets after ≈: the same amount, converted by molar mass.

How the values were obtained:
[1] = molecular target: Protein kinase C theta type (Homo sapiens, UniProt Q04759); experiment: Inhibition of human PKCtheta by IMAP assay
[2] = molecular target: Protein kinase C delta type (Homo sapiens, UniProt Q05655); experiment: Inhibition of human PKCdelta by IMAP assay
Protein kinase C delta type, sequence (Q05655 whole entry): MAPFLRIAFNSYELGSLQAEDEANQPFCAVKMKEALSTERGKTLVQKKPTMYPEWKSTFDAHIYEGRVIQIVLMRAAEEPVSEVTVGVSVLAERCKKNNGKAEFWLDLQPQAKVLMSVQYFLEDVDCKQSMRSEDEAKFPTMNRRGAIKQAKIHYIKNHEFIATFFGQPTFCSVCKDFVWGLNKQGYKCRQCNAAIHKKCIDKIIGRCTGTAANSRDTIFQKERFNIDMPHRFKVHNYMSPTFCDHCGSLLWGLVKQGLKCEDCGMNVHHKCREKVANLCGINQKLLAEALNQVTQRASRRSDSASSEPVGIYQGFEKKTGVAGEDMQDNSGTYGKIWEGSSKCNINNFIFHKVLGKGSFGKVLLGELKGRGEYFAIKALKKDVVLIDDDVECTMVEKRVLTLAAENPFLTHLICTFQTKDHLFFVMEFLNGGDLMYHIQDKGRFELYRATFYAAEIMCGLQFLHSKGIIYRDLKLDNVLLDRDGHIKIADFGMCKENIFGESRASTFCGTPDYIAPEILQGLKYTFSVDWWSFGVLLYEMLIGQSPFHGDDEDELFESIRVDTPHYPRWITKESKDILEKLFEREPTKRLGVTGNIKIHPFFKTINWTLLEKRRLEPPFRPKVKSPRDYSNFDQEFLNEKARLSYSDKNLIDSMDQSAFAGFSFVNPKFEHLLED

[3] = molecular target: Protein kinase C beta type (Homo sapiens, UniProt P05771); experiment: Inhibition of human PKCbeta by IMAP assay
Protein kinase C beta type, sequence (P05771 whole entry): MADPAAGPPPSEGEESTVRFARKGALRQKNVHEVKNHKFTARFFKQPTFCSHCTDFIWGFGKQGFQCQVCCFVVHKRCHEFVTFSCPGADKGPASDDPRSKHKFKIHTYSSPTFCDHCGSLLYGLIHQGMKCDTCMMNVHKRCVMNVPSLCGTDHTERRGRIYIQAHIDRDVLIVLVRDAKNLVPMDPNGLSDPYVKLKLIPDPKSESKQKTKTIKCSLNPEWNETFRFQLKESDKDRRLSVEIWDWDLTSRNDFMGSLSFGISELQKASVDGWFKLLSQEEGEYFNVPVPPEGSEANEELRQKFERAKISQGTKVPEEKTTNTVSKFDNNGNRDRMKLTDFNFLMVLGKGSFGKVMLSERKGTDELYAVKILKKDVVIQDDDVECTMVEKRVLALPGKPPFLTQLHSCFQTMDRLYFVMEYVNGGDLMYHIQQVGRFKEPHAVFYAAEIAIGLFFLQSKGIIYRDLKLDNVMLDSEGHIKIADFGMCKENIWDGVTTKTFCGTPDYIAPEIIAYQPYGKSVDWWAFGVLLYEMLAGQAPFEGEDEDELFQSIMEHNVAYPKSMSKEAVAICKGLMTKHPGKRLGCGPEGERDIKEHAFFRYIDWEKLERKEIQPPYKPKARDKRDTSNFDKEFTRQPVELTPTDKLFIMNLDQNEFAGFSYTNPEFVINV

[4] = molecular target: T1, Protein kinase C epsilon type (Homo sapiens, UniProt Q02156); experiment: Inhibition of human PKCepsilon by IMAP assay
T1 sequence (Q02156 whole entry): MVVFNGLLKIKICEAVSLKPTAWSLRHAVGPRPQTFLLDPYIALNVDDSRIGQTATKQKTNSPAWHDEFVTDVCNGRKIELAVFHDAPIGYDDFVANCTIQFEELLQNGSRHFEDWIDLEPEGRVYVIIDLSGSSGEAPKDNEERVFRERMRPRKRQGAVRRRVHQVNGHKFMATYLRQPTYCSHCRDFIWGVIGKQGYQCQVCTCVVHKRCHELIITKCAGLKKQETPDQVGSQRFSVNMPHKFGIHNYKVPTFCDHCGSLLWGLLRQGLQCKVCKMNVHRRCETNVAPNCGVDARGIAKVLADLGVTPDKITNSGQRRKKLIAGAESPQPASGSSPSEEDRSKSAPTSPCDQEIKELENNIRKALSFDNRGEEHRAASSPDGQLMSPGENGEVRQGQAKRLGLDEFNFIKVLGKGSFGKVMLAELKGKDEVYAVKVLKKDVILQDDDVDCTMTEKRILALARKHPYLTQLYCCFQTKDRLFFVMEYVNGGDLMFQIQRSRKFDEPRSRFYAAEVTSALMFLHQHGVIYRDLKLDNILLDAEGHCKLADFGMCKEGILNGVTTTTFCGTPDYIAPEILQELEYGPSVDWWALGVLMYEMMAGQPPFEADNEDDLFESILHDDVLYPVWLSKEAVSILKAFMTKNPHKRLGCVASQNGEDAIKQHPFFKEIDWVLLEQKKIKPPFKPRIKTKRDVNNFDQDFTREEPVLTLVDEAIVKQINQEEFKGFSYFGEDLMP

[5] = molecular target: Protein kinase C eta type (Homo sapiens, UniProt P24723); experiment: Inhibition of human PKCeta by IMAP assay
Protein kinase C eta type, sequence (P24723 whole entry): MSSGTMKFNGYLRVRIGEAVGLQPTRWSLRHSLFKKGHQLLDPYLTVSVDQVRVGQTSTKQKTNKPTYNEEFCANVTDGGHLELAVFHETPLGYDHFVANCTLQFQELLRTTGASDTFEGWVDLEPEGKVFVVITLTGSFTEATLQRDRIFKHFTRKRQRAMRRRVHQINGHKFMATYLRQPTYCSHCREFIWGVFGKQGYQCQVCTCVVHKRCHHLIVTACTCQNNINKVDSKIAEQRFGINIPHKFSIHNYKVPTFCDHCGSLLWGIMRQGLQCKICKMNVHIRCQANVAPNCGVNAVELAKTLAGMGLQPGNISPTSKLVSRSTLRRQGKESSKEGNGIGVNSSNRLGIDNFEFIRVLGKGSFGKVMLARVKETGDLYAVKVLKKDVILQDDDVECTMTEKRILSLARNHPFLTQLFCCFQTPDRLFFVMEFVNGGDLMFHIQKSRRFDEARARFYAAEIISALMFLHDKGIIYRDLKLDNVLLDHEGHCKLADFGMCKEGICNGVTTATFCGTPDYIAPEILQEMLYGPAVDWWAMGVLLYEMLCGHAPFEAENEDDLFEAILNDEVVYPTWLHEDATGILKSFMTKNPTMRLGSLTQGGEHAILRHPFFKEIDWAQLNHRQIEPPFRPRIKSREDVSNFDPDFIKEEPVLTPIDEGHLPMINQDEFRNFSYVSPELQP

[6] = molecular target: T2, Protein kinase C zeta type (Homo sapiens, UniProt Q05513); experiment: Inhibition of human PKCzeta by IMAP assay
T2 sequence (Q05513 whole entry): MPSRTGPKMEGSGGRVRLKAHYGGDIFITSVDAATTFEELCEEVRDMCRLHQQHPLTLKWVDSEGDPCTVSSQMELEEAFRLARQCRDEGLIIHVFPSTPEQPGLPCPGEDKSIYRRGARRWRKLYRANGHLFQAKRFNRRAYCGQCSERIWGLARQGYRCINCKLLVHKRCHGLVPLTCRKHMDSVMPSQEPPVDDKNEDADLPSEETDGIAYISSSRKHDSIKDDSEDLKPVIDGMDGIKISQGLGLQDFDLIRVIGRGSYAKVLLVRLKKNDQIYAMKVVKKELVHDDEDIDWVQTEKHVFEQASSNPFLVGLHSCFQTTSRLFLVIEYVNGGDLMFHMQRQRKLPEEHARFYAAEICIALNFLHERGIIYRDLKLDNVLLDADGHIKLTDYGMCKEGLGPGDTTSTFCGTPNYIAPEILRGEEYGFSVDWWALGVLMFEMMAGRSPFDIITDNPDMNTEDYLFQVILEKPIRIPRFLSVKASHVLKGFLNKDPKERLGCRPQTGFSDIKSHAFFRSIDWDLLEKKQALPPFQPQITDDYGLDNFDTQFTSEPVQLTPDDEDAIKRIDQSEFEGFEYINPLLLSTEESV

[7] = molecular target: Tyrosine-protein kinase Lyn (Homo sapiens, UniProt P07948); experiment: Inhibition of Lyn
Tyrosine-protein kinase Lyn, sequence (P07948 whole entry): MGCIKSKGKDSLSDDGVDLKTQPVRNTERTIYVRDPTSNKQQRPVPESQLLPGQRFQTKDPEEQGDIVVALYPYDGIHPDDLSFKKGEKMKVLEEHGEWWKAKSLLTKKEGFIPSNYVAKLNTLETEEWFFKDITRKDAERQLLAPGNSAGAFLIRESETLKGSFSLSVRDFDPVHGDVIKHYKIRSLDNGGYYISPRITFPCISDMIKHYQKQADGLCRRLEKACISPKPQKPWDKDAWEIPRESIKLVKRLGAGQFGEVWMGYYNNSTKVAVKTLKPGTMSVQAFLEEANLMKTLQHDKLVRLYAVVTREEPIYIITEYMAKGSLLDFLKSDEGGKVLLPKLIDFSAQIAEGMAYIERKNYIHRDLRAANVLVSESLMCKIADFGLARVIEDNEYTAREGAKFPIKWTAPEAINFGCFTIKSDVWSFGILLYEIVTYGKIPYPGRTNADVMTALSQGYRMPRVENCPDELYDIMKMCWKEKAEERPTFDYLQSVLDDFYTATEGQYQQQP

[8] = molecular target: Tyrosine-protein kinase Lck (Homo sapiens, UniProt P06239); experiment: Inhibition of Lck
[9] = molecular target: MAP kinase-activated protein kinase 2 (Homo sapiens, UniProt P49137); experiment: Inhibition of MK2
MAP kinase-activated protein kinase 2, sequence (P49137 whole entry): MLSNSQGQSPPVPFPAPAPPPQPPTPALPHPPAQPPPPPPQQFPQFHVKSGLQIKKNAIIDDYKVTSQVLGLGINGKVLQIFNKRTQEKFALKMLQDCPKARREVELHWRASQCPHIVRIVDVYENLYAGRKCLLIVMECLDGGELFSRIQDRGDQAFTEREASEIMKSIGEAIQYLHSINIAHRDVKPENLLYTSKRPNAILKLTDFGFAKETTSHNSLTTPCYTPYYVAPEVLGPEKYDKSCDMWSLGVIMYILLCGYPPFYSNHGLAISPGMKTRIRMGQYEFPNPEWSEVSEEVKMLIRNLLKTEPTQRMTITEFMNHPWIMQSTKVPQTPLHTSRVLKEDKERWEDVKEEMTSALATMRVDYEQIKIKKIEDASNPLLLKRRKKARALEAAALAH

[10] = Inhibition of p38
[11] = Inhibition of IKK
[12] = Inhibition of PDGFR
[13] = molecular target: Rho-associated protein kinase 1 (Homo sapiens, UniProt Q13464); experiment: Inhibition of ROCK1
Rho-associated protein kinase 1, sequence (Q13464 whole entry): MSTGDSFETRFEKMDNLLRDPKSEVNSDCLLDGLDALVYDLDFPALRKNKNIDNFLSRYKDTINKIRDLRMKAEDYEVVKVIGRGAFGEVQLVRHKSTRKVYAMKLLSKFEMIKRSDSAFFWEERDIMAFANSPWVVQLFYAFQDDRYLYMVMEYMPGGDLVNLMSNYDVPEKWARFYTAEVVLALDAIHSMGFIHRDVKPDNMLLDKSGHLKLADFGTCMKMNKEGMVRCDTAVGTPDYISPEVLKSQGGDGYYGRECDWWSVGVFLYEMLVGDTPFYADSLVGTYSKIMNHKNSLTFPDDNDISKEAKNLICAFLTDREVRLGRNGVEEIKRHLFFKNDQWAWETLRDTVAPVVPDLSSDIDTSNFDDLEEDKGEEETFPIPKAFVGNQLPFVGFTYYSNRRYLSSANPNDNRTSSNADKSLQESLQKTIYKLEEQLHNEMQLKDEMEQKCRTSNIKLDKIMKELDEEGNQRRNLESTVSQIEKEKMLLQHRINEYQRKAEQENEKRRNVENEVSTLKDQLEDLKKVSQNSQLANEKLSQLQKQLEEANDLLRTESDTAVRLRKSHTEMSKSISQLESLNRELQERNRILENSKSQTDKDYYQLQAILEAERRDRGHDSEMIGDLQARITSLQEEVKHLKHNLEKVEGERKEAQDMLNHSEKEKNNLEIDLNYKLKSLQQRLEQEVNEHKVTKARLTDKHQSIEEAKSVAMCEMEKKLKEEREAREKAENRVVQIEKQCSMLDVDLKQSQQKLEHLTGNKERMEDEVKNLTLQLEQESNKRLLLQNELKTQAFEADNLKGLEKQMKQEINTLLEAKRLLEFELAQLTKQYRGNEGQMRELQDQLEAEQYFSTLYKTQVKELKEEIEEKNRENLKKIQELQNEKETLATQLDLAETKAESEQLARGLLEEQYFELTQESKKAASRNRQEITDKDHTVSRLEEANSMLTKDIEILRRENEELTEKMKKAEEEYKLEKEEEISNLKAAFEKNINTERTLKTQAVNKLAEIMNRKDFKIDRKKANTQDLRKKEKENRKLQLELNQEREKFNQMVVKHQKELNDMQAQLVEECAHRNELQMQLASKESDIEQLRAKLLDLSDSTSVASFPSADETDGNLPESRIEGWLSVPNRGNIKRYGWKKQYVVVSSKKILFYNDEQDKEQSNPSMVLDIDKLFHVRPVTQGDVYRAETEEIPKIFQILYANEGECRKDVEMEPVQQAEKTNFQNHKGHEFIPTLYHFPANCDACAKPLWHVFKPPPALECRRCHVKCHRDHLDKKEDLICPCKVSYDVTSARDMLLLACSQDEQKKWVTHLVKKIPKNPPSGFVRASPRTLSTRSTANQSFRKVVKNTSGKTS

T-cell [14] = experiment: Blockade of anti-CD3 and anti-CD28 antibody-induced IL2 expression in wild type C57BL/6 mouse T cells after 20 to 24 hrs by ELISA; type: functional, cell-based; details: C57BL/6, T-cell
T-cell [15] = experiment: Blockade of anti-CD3 and anti-CD28 antibody-induced IL2 expression in PKC theta knockout mouse T cells after 20 to 24 hrs by ELISA; type: functional, cell-based
[16] = Membrane permeability by PAMPA; type: ADME; details: read-out: permeability
[17] = Solubility at pH 7.4; type: physicochemical; details: buffer
[18] = Metabolic stability in rat liver microsomes assessed as half life; type: ADME, Microsome
[19] = Metabolic stability in mouse liver microsomes assessed as half life; type: ADME, Microsome
[20] = Metabolic stability in dog liver microsomes assessed as half life; type: ADME, Canis lupus familiaris, Microsome
[21] = Metabolic stability in monkey liver microsomes assessed as half life; type: ADME, Macaca mulatta, Microsome; details: rhesus monkey
[22] = Metabolic stability in human liver microsomes assessed as half life; type: ADME, Microsome

Protein kinase C theta type, sequence (Q04759 whole entry): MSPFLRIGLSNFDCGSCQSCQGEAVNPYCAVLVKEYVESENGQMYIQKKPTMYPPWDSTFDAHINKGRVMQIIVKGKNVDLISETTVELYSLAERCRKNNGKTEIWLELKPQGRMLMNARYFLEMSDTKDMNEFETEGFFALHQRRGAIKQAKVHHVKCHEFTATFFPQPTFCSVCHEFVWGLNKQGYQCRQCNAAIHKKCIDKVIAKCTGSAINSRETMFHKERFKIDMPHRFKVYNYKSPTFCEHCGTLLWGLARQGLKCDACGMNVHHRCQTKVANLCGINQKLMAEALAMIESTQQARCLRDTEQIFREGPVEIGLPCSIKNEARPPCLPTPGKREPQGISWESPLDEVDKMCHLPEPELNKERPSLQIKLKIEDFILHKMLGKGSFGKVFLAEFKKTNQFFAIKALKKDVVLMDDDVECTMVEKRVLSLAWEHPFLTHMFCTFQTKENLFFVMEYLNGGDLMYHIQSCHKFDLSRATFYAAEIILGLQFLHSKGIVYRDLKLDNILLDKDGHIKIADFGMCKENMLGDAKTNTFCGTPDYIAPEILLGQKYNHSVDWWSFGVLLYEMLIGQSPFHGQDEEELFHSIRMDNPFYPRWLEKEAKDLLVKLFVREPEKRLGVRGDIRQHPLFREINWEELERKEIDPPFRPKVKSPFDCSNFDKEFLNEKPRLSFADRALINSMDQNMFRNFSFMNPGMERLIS

## COc1ccc(-c2cncc(C#N)c2Nc2ccc3[nH]ccc3c2F)cc1OC
[1]
  IC50: 5.3 nM
[2]
  IC50: 69 nM

## COc1ccc(-c2cncc(C#N)c2Nc2ccc3c(ccn3C)c2C)cc1OC
[1]
  IC50: 260 nM
[2]
  IC50: 1400 nM

## Cc1c(Nc2c(C#N)cncc2-c2ccccc2)ccc2[nH]ccc12
[2]
  IC50: 63 nM

## COc1ccc(-c2cncc(C#N)c2Nc2ccc3[nH]ccc3c2C)cc1
[1]
  IC50: 5.6 nM
[2]
  IC50: 85 nM

## Cc1c(Nc2c(C#N)cncc2-c2ccc(OCCN3CCOCC3)cc2)ccc2[nH]ccc12
[2]
  IC50: 150 nM

## Cc1c(Nc2c(C#N)cncc2-c2ccc(OCCN3CCN(C)CC3)cc2)ccc2[nH]ccc12
[1]
  IC50: 7.4 nM
[2]
  IC50: 51 nM
[3]
  IC50: 22000 nM
[4]
  IC50: 54 nM
[5]
  IC50: 450 nM
[6]
  IC50: > 100000 nM
[7]
  IC50: > 10000 nM
[8]
  IC50: > 10000 nM
[9]
  IC50: > 10000 nM
[10]
  IC50: > 10000 nM
[11]
  IC50: > 10000 nM
[12]
  IC50: > 10000 nM
[13]
  IC50: > 10000 nM
T-cell [14]
  IC50: 160 nM
T-cell [15]
  IC50: > 15000 nM
[16]
  Papp: 0.28 ×10⁻⁶ cm/s
[17]
  solubility: 67 µg/mL (≈ 144 µM)
[18]
  half-life: < 15 min
[19]
  half-life: < 15 min
[20]
  half-life: < 15 min
[21]
  half-life: < 15 min
[22]
  half-life: < 15 min

## Cc1cc2[nH]ccc2cc1Nc1c(C#N)cncc1-c1ccc(OCCN2CCN(C)CC2)cc1
[2]
  IC50: 130 nM

## COc1ccc(-c2cncc(C#N)c2Nc2ccc3cc[nH]c3c2)cc1OC
[1]
  IC50: 2300 nM

## Cc1c(Nc2c(C#N)cncc2-c2ccc(OCCCN3CCN(C)CC3)cc2)ccc2[nH]ccc12
[2]
  IC50: 110 nM

## CN1CCN(CCOc2ccc(-c3cncc(C#N)c3Nc3cccc4[nH]ccc34)cc2)CC1
[1]
  IC50: 14 nM
[2]
  IC50: 41 nM

## Cc1c(Nc2c(C#N)cncc2-c2ccc(OCCN3CCC(N4CCCC4)CC3)cc2)ccc2[nH]ccc12
[2]
  IC50: 30 nM

## CCc1c(Nc2c(C#N)cncc2-c2ccc(OC)c(OC)c2)ccc2[nH]ccc12
[1]
  IC50: 55 nM
[2]
  IC50: 980 nM

## COc1ccc(-c2cncc(C#N)c2Nc2cc(C)c3[nH]ccc3c2)cc1OC
[1]
  IC50: 120 nM

## COc1ccc(-c2cncc(C#N)c2Nc2cc3cc[nH]c3cc2C)cc1OC
[1]
  IC50: 10.5 nM
[2]
  IC50: 280 nM

## Cc1c(Nc2c(C#N)cncc2-c2ccc(OCCNCCN(C)C)cc2)ccc2[nH]ccc12
[1]
  IC50: 5.9 nM
[2]
  IC50: 18 nM

## COc1ccc(-c2cncc(C#N)c2N(C)c2ccc3[nH]ccc3c2)cc1OC
[2]
  IC50: 2100 nM

## COc1ccc(-c2cncc(C#N)c2Oc2ccc3[nH]ccc3c2)cc1OC
[1]
  IC50: 1700 nM

## COc1ccc(-c2cncc(C#N)c2-c2ccc3[nH]ccc3c2)cc1OC
[1]
  IC50: 1700 nM

## Cc1c(Nc2c(C#N)cncc2-c2ccc(OCCN3CCCC3)cc2)ccc2[nH]ccc12
[1]
  IC50: 4.5 nM
[2]
  IC50: 28 nM

## COc1ccc(-c2cncc(C#N)c2Nc2ccc3[nH]ccc3c2C)cc1OC
[1]
  IC50: 6.3 nM
[2]
  IC50: 81 nM

## COc1ccc(-c2cncc(C#N)c2Nc2ccc3[nH]ccc3c2OC)cc1OC
[2]
  IC50: 350 nM

## COc1ccccc1-c1cncc(C#N)c1Nc1ccc2[nH]ccc2c1C
[2]
  IC50: 340 nM

## COc1ccc(-c2cncc(C#N)c2Nc2cccc3[nH]ccc23)cc1OC
[2]
  IC50: 62 nM

## COc1cccc(-c2cncc(C#N)c2Nc2ccc3[nH]ccc3c2C)c1
[2]
  IC50: 210 nM

## Cc1c(Nc2c(C#N)cncc2-c2ccc(OCCN3CCN(CCO)CC3)cc2)ccc2[nH]ccc12
[2]
  IC50: 29 nM

## CN1CCN(CCOc2ccc(-c3cncc(C#N)c3Nc3ccc4[nH]ccc4c3)cc2)CC1
[2]
  IC50: 160 nM
